Experimental data as given in patent US12582641B2, “Sulfur-containing compound based on glutarimide skeleton and application thereof” (SHANGHAITECH UNIVERSITY, priority 2019, dated 2026).

Experiments:
ALCL cell line SR = experiment: Proliferation inhibition (IC50) in lymphoma cell line SR, cell viability assay; type: cell-based; details: 72 h, SR cells, WST reagent
Source text: (§1) We tested the anti-proliferation activities of the compounds of the present invention in ALCL cell line SR and Mantle cell lymphoma Mino (which overexpressed IKZF1/3, but were not sensitive to immunomodulatory drugs) through a dose-dependent manner. […] The experiment was repeated more than three times.

[1] = tested on: Mantle cell lymphoma Mino; experiment: Proliferation inhibition (IC50) in lymphoma cell line Mino, cell viability assay; type: cell-based; details: Mino cells; for IC50: 72 h, WST reagent
Source text: as §1

MM.1S cells = experiment: Proliferation inhibition (IC50) in MM.1S cells, cell viability assay; details: Homo sapiens, MM1.S, 72 h, read-out: IC50 (nM), proliferation inhibitory activity of MM.1S cells (half inhibitory concentration)

With `O=C1CCC(N2Cc3c(SCc4ccc(CCNC56CC7CC(CC(C7)C5)C6)cc4)cccc3C2=O)C(=O)N1` (centres unmarked) [SIAIS287128, 3-(4-((4-(2-(adamantan-1-ylamino)ethyl)benzyl)thio)-1-oxoisoindolin-2-yl)piperidine-2,6-dione] the IC50 (ALCL cell line SR; Homo sapiens, SR) was about 0.3 nM, the IC50 (ALCL cell line SR) was 0.297 nM and the IC50 ([1]; Homo sapiens, MINO) was about 0.29 nM. The IC50 [1] was 0.289 nM, the “IC50 times lower than Pomalidomide” value ([1]; versus pomalidomide IC50 48 nM) was 165 times and the IC50 (MM.1S cells) was 0.018 ± 0.005 nM.

`Nc1cccc2c1C(=O)N(C1CCC(=O)NC1=O)C2=O` (centres unmarked) [pomalidomide, reference compound] gave an IC50 ([1]; Homo sapiens, MINO) of 48 nM, an IC50 [1] of 48 nM and an IC50 (MM.1S cells) of 9.4 ± 1.3 nM.

`O=C1CCC(N2Cc3c(SCCCCCCCNC45CC6CC(CC(C6)C4)C5)cccc3C2=O)C(=O)N1` (centres unmarked) [SIAIS1220155, 3-(4-((7-((adamantan-1-yl)amino)heptyl)thio)-1-oxoisoindolin-2-yl)piperidine-2,6-dione] was tested, and the IC50 (ALCL cell line SR; Homo sapiens, SR) was 7.42 nM, the IC50 ([1]; Homo sapiens, MINO) was 0.776 nM and the IC50 (MM.1S cells) was 0.02 nM.

`O=C1CCC(N2Cc3c(SCc4ccc(CN5CCCCC5)cc4)cccc3C2=O)C(=O)N1` (centres unmarked) [SIAIS1220165, 3-(1-oxo-4-((4-(piperidin-1-ylmethyl)benzyl)thio)isoindolin-2-yl)piperidine-2,6-dione] showed an IC50 (ALCL cell line SR; Homo sapiens, SR) of 1.89 nM, an IC50 ([1]; Homo sapiens, MINO) of 5.83 nM and an IC50 (MM.1S cells) of 0.09 nM.

For `O=C1CCC(N2Cc3c(SCCCCCCCNC4C5CC6CC(C5)CC4C6)cccc3C2=O)C(=O)N1` (centres unmarked) [SIAIS1220159, 3-(4-((7-((adamantan-2-yl)amino)heptyl)thio)-1-oxoisoindolin-2-yl)piperidine-2,6-dione], the IC50 (MM.1S cells) was 0.01 nM.

Compound `O=C1CCC(N2Cc3c(SCCCCCCCNc4ccccc4)cccc3C2=O)C(=O)N1` (centres unmarked) [SIAIS1220187, 3-(1-oxo-4-((7-(phenylamino)heptyl)thio)isoindolin-2-yl)piperidine-2,6-dione] has an IC50 (MM.1S cells) of 0.598 nM.

Work on `O=C1CCC(N2C(=O)c3cccc(SCCCCCCCNC4CC5(CCC5)C4)c3C2=O)C(=O)N1` (centres unmarked) [SIAIS1224015, 2-(2,6-dioxopiperidin-3-yl)-4-((7-(spiro[3.3]heptan-2-ylamino)heptyl)thio)isoindoline-1,3-dione] yielded an IC50 (MM.1S cells) of 0.691 nM.

`O=C1CCC(N2Cc3c(SCc4ccc(CN5CCCCC5)o4)cccc3C2=O)C(=O)N1` (centres unmarked) [SIAIS313123, 3-(1-oxo-4-(((5-(piperidin-1-ylmethyl)furan-2-yl)methyl)thio)isoindolin-2-yl)piperidine-2,6-dione] gave an IC50 (MM.1S cells) of 2.29 ± 0.95 nM.

Work on `O=C1CCC(N2Cc3c(SCc4cc(Br)c(CNC5CCCCC5)cc4Br)cccc3C2=O)C(=O)N1` (centres unmarked) [SIAIS1227141, 3-(4-((2,5-dibromo-4-((cyclohexylamino)methyl)benzyl)thio)-1-oxoisoindolin-2-yl)piperidine-2,6-dione] yielded an IC50 (MM.1S cells) of 4.98 ± 0.99 nM.

In the case of `O=C1CCC(N2Cc3c(SCCCCCCCN4CCCCC4=O)cccc3C2=O)C(=O)N1` (centres unmarked) [SIAIS264042, 3-(1-oxo-4-((7-(2-oxopiperidin-1-yl)heptyl)thio)isoindolin-2-yl)piperidine-2,6-dione], the IC50 (MM.1S cells) is reported as 0.051 nM.

Compound `O=C1CCC(N2Cc3c(SCc4ccc(CNCC5CCCCO5)cc4)cccc3C2=O)C(=O)N1` (centres unmarked) [SIAIS1224019, 3-(1-oxo-4-((4-((((tetrahydro-2H-pyran-2-yl)methyl)amino)methyl)benzyl)thio)isoindolin-2-yl)piperidine-2,6-dione] has an IC50 (MM.1S cells) of 0.048 nM.

For `CC1(C)[C@@H]2CC[C@@]1(C)[C@@H](NCCCCCCSc1cccc3c1CN(C1CCC(=O)NC1=O)C3=O)C2` (stereo partly drawn) [SIAIS1221115, 3-(1-oxo-4-((6-(((1R,2S,4R)-1,7,7-trimethylbicyclo[2.2.1]heptan-2-yl)amino)hexyl)thio)isoindolin-2-yl)piperidine-2,6-dione], the IC50 (MM.1S cells) was 0.082 nM.

In the case of `C[C@@H](NCc1ccc(CSc2cccc3c2CN(C2CCC(=O)NC2=O)C3=O)cc1)C1CC1` (stereo partly drawn) [SIAIS1227173, 3-(4-((4-((((R)-1-cyclopropylethyl)amino)methyl)benzyl)thio)-1-oxoisoindolin-2-yl)piperidine-2,6-dione], the IC50 (MM.1S cells) is reported as 0.095 nM.

`O=C1CCC(N2Cc3c(SCCCCCCCCCS(=O)(=O)CCCC(F)(F)C(F)(F)F)cccc3C2=O)C(=O)N1` (centres unmarked) [SIAIS1220147, 3-(1-oxo-4-((9-((4,4,5,5,5-pentafluoropentyl)sulfonyl)nonyl)thio)isoindolin-2-yl)piperidine-2,6-dione] gave an IC50 (MM.1S cells) of 1.59 nM.

In the case of `O=C1CCC(N2Cc3c(SCCCc4ccc(CNC56CC7CC(CC(C7)C5)C6)cc4)cccc3C2=O)C(=O)N1` (centres unmarked) [SIAIS1227037, 3-(4-((3-(4-(((adamantan-1-yl)amino)methyl)phenyl)propyl)thio)-1-oxoisoindolin-2-yl)piperidine-2,6-dione], the IC50 (MM.1S cells) is reported as 0.04 ± 0.02 nM.

`O=C1CCC(N2Cc3c(SCc4ccc(CCNC5CCCCC5)cc4)cccc3C2=O)C(=O)N1` (centres unmarked) [SIAIS1224155, 3-(4-((4-(2-(cyclohexylamino)ethyl)benzyl)thio)-1-oxoisoindolin-2-yl)piperidine-2,6-dione] gave an IC50 (MM.1S cells) of 0.021 ± 0.004 nM.

`CCN(CC)CCCCCCCCCSc1cccc2c1CN(C1CCC(=O)NC1=O)C2=O` (centres unmarked) [SIAIS1220067, 3-(4-((9-(diethylamino)nonyl)thio)-1-oxoisoindolin-2-yl)piperidine-2,6-dione] was tested, and the IC50 (MM.1S cells) was 0.25 nM.

Compound `CC(C)(C)NCCCCCCCSc1cccc2c1CN(C1CCC(=O)NC1=O)C2=O` (centres unmarked) [SIAIS1222079, 3-(4-((7-(tert-butylamino)heptyl)thio)-1-oxoisoindolin-2-yl)piperidine-2,6-dione] has an IC50 (MM.1S cells) of 0.135 nM.

Work on `O=C1CCC(N2Cc3c(SCc4ccc(CN5CCOCC5)cc4F)cccc3C2=O)C(=O)N1` (centres unmarked) [SIAIS1227181, 3-(4-((2-fluoro-4-(morpholinomethyl)benzyl)thio)-1-oxoisoindolin-2-yl)piperidine-2,6-dione] yielded an IC50 (MM.1S cells) of 0.113 nM.

`O=C1CCC(N2Cc3c(SCc4ccc(CNC56CC7CC(CC5C7)C6)cc4)cccc3C2=O)C(=O)N1` (centres unmarked) [SIAIS1228019, 3-(4-((4-(((hexahydro-2,5-methanopentalen-3a(1H)-yl)amino)methyl)benzyl)thio)-1-oxoisoindolin-2-yl)piperidine-2,6-dione] was tested, and the IC50 (MM.1S cells) was 0.051 nM.

`O=C1CCC(N2Cc3c(SCCCCCCCSC45CC6CC(CC(C6)C4)C5)cccc3C2=O)C(=O)N1` (centres unmarked) [SIAIS1221025, 3-(4-((7-(adamantan-1-ylthio)heptyl)thio)-1-oxoisoindolin-2-yl)piperidine-2,6-dione] showed an IC50 (MM.1S cells) of 0.061 nM.

`O=C1CCC(N2Cc3c(SCCCCCN4CCNCC4)cccc3C2=O)C(=O)N1` (centres unmarked) [SIAIS1216063, 3-(1-oxo-4-((5-(piperazin-1-yl)pentyl)thio)isoindolin-2-yl)piperidine-2,6-dione] was tested, and the IC50 (MM.1S cells) was 8.58 ± 2.58 nM.

`O=C1CCC(N2C(=O)c3cccc(SCCCCCCCNC4CCCCC4)c3C2=O)C(=O)N1` (centres unmarked) [SIAIS1221175, 4-((7-(cyclohexylamino)heptyl)thio)-2-(2,6-dioxopiperidin-3-yl)isoindoline-1,3-dione] showed an IC50 (MM.1S cells) of 0.938 nM.

`CCN(CC)Cc1csc(CSc2cccc3c2CN(C2CCC(=O)NC2=O)C3=O)n1` (centres unmarked) [SIAIS355002, 3-(4-(((4-((diethylamino)methyl)thiazol-2-yl)methyl)thio)-1-oxoisoindolin-2-yl)piperidine-2,6-dione] was tested, and the IC50 (MM.1S cells) was 1.07 ± 0.39 nM.

Compound `O=C1CCC(N2Cc3c(SCCCCCCC(=O)N4CCCCC4)cccc3C2=O)C(=O)N1` (centres unmarked) [SIAIS1220115, 3-(1-oxo-4-((7-oxo-7-(piperidin-1-yl)heptyl)thio)isoindolin-2-yl)piperidine-2,6-dione] has an IC50 (MM.1S cells) of 0.05 nM.

With `O=C1CCC(N2C(=O)c3cccc(SCc4ccc(CCCN5CCCCC5)cc4)c3C2=O)C(=O)N1` (centres unmarked) [SIAIS1227085, 2-(2,6-dioxopiperidin-3-yl)-4-((4-(3-(piperidin-1-yl)propyl)benzyl)thio)isoindoline-1,3-dione] the IC50 (MM.1S cells) was 0.37 nM.

`CN1CCN(Cc2ccc(CSc3cccc4c3CN(C3CCC(=O)NC3=O)C4=O)cc2)CC1` (centres unmarked) [SIAIS1227169, 3-(4-((4-((4-methylpiperazin-1-yl)methyl)benzyl)thio)-1-oxoisoindolin-2-yl)piperidine-2,6-dione] showed an IC50 (MM.1S cells) of 0.12 nM.

`O=C1CCC(N2Cc3c(SCCCCCCCCCCN4CCOCC4)cccc3C2=O)C(=O)N1` (centres unmarked) [SIAIS1220023, 3-(4-((10-morpholinodecyl)thio)-1-oxoisoindolin-2-yl)piperidine-2,6-dione] was tested, and the IC50 (MM.1S cells) was 0.46 ± 0.19 nM.

`C[C@H](NCc1ccc(CSc2cccc3c2CN(C2CCC(=O)NC2=O)C3=O)o1)C1CC1` (stereo partly drawn) [SIAIS313129, 3-(4-(((5-((((S)-1-cyclopropylethyl)amino)methyl)furan-2-yl)methyl)thio)-1-oxoisoindolin-2-yl)piperidine-2,6-dione] gave an IC50 (MM.1S cells) of 0.97 ± 0.55 nM.

With `O=C1CCC(N2Cc3c(SCc4ccc(CCN5CCC(F)(F)CC5)cc4)cccc3C2=O)C(=O)N1` (centres unmarked) [SIAIS1227161, 3-(4-((4-(2-(4,4-difluoropiperidin-1-yl)ethyl)benzyl)thio)-1-oxoisoindolin-2-yl)piperidine-2,6-dione] the IC50 (MM.1S cells) was 0.025 nM.

In the case of `CCN(CC)CCCCCCCSc1cccc2c1CN(C1CCC(=O)NC1=O)C2=O` (centres unmarked) [SIAIS1220033, 3-(4-((7-(diethylamino)heptyl)thio)-1-oxoisoindolin-2-yl)piperidine-2,6-dione], the IC50 (MM.1S cells) is reported as 0.23 ± 0.08 nM.

Work on `CN(CCCCCCCSc1cccc2c1CN(C1CCC(=O)NC1=O)C2=O)[C@H]1C[C@H]2CC[C@]1(C)C2(C)C` (stereo partly drawn) [SIAIS1221129, 3-(4-((7-(methyl((1R,2S,4R)-1,7,7-trimethylbicyclo[2.2.1]heptan-2-yl)amino)heptyl)thio)-1-oxoisoindolin-2-yl)piperidine-2,6-dione] yielded an IC50 (MM.1S cells) of 0.021 nM.

With `O=C1CCC(N2Cc3c(SCc4cc(Br)c(CN5CCCCC5)cc4Br)cccc3C2=O)C(=O)N1` (centres unmarked) [SIAIS1227139, 3-(4-((2,5-dibromo-4-(piperidin-1-ylmethyl)benzyl)thio)-1-oxoisoindolin-2-yl)piperidine-2,6-dione] the IC50 (MM.1S cells) was 1.04 ± 0.21 nM.
